For series [1], the system named is non-metastatic RD-ES cell line. As to the kind of experiment: Linsitinib 12 µM on non-metastatic ES cell monolayers, luminescence viability. The conditions noted are these: 12 µM over 72 hours. Format: cell-based, human. The procedure: (§1) MTT viability assay was used to determine drug toxicity, with luminescence generated by viable cells measured at the endpoint (10^4 cells per well, mean± s.e.m., n = 3). […] In order to determine cancer cell viability, cells were lysed and treated with luciferin using a Bright-Glo™ assay, with subsequent luminescence measured (10^4 cells per well, mean± s.e.m., n = 3).
Both culture media were supplemented with 10% FBS and 1 % penicillin/streptomycin.
(§2) Cell viability was analyzed using a previously established protocol.^59 Cancer cell viability was measured for GFP-Luciferase labelled cancer cells using ONE-Glo luciferase substrate that was prepared according to manufacturer’s protocol (Promega). Samples were collected following 3, 7, and 21 days cycles of linsitinib treatment. Where noted, longitudinal cell viability was also assessed using luminescence, though at the cost of signal strength. Briefly, in vivo grade VivoGlo™ Luciferin (Promega) was made at a 200x stock concentration (30 mg/ml) in water, added to sample culture media at a 1:200 dilution, and scanned using a spectrophotometer (Biotek). Some of the IC50 values were determined using cell viability data generated using an MTT assay (RealTime-Glo™ MT Cell Viability Assay, Promega) that were analyzed according to manufacturer’s protocol.

Series [2] deals with T1, phosphorylated IGF-1R (Homo sapiens, UniProt P08069).
T1 construct: both RD-ES and SK-N-MC monolayers were treated with 12 µM linsitinib for 6 hours, lysed; endogenous in cells; host or cells: RD-ES (ATCC HTB-166) and SK-N-MC (ATCC HTB-10) Ewing sarcoma cell lines
As to the kind of experiment: Human Phospho-IGF1R ELISA in ES cell monolayers. The conditions noted are these: 12 µM for 6 hours, non-metastatic and metastatic ES cell lines. Format: cell-based.

The subject of series [3] is non-metastatic TE-ES (RD-ES) bone tumor. Description: Linsitinib on non-metastatic engineered ES bone tumors (TE-ES) cultured in isolation. Format: cell-based, human.
Source text: FIGS. 31A-E show aspects of the evaluation of the dose-dependent effects of doxorubicin and linsitinib on engineered non-metastatic and metastatic ES bone tumors. […] An MTT viability assay was used to determine drug toxicity, with luminescence generated by viable cells measured at the endpoint (10^4 cells per well, mean± s.e.m., n = 3). […] Tumors are outlined by white dashes and validated using corresponding H&E stains of the identical loci. All scale bars: 250 µm.
FIGS. 32A-D show aspects of responses of human engineered bone ES tumors and cardiac tissues to linsitinib in isolated platform chambers. […] Luminescence as a function of cancer cell number and viability was measured (mean± s.e.m., n = 6 for day 3, and n = 3 for day 7 and 21).
The effects of linsitinib were studied in an experiment performed according to the 3-week treatment cycle used in the clinical trial (3 days of drug administration followed by 4 days without the drug, in 3 cycles), with luminescence signal serving as an indicator of cancer cell viability within the TE-ES.
Supernatants were collected from each individual sample across the duration of the drug treatments and were analyzed for osteoblast function (OCN, OPN) and for cytotoxicity (LDH) (mean± s.e.m., n = 3).
Two weeks following the initiation of osteogenic differentiation, aggregates of ES tumor cells were prepared as described previously, using 0.3 × 10^6 cells per aggregate. After 1 week of culture, corresponding to the end of bone tissue culture (3 weeks), the primary ES cell aggregates were placed into the engineered bone constructs (3 aggregates per construct, placed apart of each other). Tumor models were established for two different types of primary ES cells: non-metastatic (RD-ES) and metastatic (SK-N-MC). Tissue engineered RD-ES and SK-N-MC tumors were cultured in the RPMI and EMEM media, respectively, supplemented with 10% FBS and 1% penicillin/streptomycin. Bone constructs cultured without tumor cell aggregates (TE-bone) in RPMI and EMEM media were used as controls.
To assess apoptosis, paraffin embedded tissue sections were first deparaffinized with CitriSolv, rehydrated with graded series of ethanol washes, and then stained with a Click-iT® TUNEL Alexa Fluor® imaging assay (Thermo Fisher Scientific). Following nuclear counterstaining with DAPI (Life Technologies), the TUNEL labelled slides were imaged with an IX81 inverted fluorescent microscope (Olympus) and a Pike F032B camera (ALLIED Vision), using NIS-Elements AR software, and processed using ImageJ (NIH). Four representative images per condition were then analyzed using the previously developed automatic TUNEL cell counter plugin for ImageJ to quantify DAPI^+ cells and TUNEL^+ cells.
as §2, with “(Biotek).” for “(Biotek). Some of the IC50 values were determined using cell viability data generated using an MTT assay (RealTime-Glo™ MT Cell Viability Assay, Promega) that were analyzed according to manufacturer’s protocol.”

Series [4] deals with ES cell monolayers. As to the kind of experiment: Linsitinib dose response in ES cell monolayers (MTT and luminescence viability). Format: cell-based, human. The conditions noted are these: 0-100 µM over 72 hours. The procedure: as §1, §2
[5] abbreviates: 12 µM, 3-week regimen, supernatants.

The record followed here is patent US20230287316A1, “INTER-ORGAN PLATFORM WITH TISSUE-SPECIFIC NICHES FOR A MICROPHYSIOLOGICAL SYSTEM ON A CHIP” (THE TRUSTEES OF COLUMBIA UNIVERSITY IN THE CITY OF NEW YORK, priority 2020, published 2023).

A word on the pIC50: it is the negative decadic logarithm of the IC50, by convention in mol/L.

pIC50: −log10 of the molar value.

T1 sequence (P08069 31-1367): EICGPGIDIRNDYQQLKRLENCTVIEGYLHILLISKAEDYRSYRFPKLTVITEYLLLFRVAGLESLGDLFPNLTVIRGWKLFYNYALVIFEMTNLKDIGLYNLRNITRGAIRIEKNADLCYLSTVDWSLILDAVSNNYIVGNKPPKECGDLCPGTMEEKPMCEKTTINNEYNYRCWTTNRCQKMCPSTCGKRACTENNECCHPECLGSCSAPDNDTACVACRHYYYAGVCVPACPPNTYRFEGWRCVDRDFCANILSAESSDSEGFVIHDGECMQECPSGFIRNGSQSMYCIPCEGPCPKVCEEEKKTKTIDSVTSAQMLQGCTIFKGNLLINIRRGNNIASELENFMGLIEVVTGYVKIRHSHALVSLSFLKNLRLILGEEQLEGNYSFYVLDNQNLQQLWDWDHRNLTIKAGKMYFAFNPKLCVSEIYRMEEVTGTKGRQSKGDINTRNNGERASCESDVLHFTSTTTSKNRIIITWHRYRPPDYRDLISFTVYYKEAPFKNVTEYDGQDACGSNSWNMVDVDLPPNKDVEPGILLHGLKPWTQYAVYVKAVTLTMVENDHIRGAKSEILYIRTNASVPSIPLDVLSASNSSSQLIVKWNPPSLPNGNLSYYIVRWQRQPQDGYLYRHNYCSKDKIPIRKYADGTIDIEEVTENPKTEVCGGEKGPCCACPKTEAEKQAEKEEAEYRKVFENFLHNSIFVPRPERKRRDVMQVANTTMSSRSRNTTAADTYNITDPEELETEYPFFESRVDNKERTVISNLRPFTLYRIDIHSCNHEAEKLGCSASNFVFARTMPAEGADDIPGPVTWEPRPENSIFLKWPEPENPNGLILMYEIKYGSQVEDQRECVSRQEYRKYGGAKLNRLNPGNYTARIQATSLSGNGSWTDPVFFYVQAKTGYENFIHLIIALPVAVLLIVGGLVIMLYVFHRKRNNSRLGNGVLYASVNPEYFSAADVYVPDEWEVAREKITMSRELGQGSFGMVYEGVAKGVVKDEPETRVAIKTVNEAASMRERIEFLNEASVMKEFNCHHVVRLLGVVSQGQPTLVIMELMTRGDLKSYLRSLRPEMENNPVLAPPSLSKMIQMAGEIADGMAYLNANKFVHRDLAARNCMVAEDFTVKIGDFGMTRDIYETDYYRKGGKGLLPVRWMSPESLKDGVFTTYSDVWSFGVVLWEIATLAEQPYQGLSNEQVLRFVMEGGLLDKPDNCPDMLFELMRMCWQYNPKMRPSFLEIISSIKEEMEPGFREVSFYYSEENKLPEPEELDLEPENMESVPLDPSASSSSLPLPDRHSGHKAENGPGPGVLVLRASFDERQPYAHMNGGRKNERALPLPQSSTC

`C[C@]1(O)C[C@@H](c2nc(-c3ccc4ccc(-c5ccccc5)nc4c3)c3c(N)nccn32)C1` [linsitinib]: in series [1], the “drug efficacy (luminescence viability)” value is listed as “significant drug efficacy”. In series [2], the “levels of phosphorylated IGF-1R” value is reported as “significant decreases”. Moreover, the “response to linsitinib concentration (luminescence viability)” value in series [3] (0, 1.2, 12, and 120 µM for 72 hours) is on record as “dose-dependent response”. For the same compound, in series [3] (12 µM), the “apoptosis (TUNEL assay)” value is “increases in apoptosis” and the “cell viability (luminescence)” value is reported as “significant reduction in cell viability”. In addition, in series [3] (setting [5]), the “LDH secretion (cytotoxicity)” value was “spiked in both models immediately following drug administration, but significantly more so” and the Osteocalcin secretion entry was “decreased”. Moreover, the “cancer cell population (luminescence)” value in series [3] (12 µM, 21-day clinical treatment regimen) is “initial decrease in cancer cell population in the non-metastatic model and this population appeared unable to continue expanding”. Moreover, the “drug response (luminescence)” value in series [3] (12 µM, after 3 days) is “significant drug response”. For the same compound, in series [3] (12 µM, throughout the 21 days), the osteopontin secretion entry is on record as “significantly increased”. In series [3] (second 21-day 12 µM treatment regimen), the “drug response of tumors derived from sorted linsitinib-resistant cells” value was “significant initial drug response”. Also, the “IC50 (MTT viability assay)” value in series [4] was “two orders of magnitude lower than the effective plasma concentration observed in patients”. The pIC50 in series [4] (Homo sapiens, GFP-luciferase cells, read-out: IC50 (luminescence as a proxy for cell viability)) was around 4.92.
